The test system of one experiment is Staphylococcus aureus. Put plainly: Bacterial inhibition in mouse model, survival after S. aureus septic shock. The format is in vivo, mice. As to conditions: 1 mg/mouse peritoneally 3 days and 1 day prior, 1×10^9 S. aureus intravenously, FIG. 6. Here is the method: Skin is directly vulnerable to or may suffer from single infection with various bacteria and about 90% of atopic patients suffer from secondary infections with bacteria such as Staphylococcus spp. Therefore, there is a need for bacterial inhibition and amelioration of infectious diseases. Prior to the test of skin itching due to bacterial infections, this experiment was carried out to test whether beta-glucan has direct synergistic effects on antibacterial activity and antibiotic activity in vivo, using a mouse model.
Erythromycin was used as an antibiotic and Staphylococcus aureus, one of staphylococci as a major cause of skin infections, was used as the test bacteria. Each experimental group was composed of 6 to 7 mice per group. Experiments were carried out as follows.
1) 3 days and I day prior to bacterial challenge, 1 mg/mouse of saline, antibiotic, beta-glucan, or a beta-glucan/antibiotic mixture was peritoneally injected into mice.
2) 30 min prior to bacterial administration, 18 mg/kg of the antibiotic was subcutaneously injected into the mice.
3) Then, 1×10^9 of bacteria (S. aureus) were intravenously injected to induce septic shock.
4) Finally, a survival rate (%) of the animals was periodically confirmed every 12 hours.

The subject of the next experiment is hairless mice. Put plainly: Skin moisture loss (TEWL) recovery after acetone-induced skin barrier damage. In kind it is in vivo. As for the experimental part: This experiment was carried out to evaluate effects of beta-glucan on recovery of a skin barrier function loss due to long-term skin damage.
A barrier function of dorsal skin of experimental animals was damaged by periodic application of acetone to the dorsal parts of young hairless mice (10 weeks old) for 3 consecutive days three times a day. Trans-epidermal water loss (TEWL) was measured in the experimental animals. For only the mice having skin with more than 40 g/m′/hr of TEWL, a vehicle (propylene glycol:water=5:5) and a sample containing 0.2% beta-glucan of Example 1 were applied at a dose of 200 μl per 5 cm^2 of a skin area for 3 consecutive days three times a day, and TEWL was measured periodically.

For another experiment, the system named is human skin cells. Put plainly: Synthesis of filaggrin by skin cells, Western blotting. The format is cell-based. As to conditions: beta-glucan 0.01%, 2 days treatment, FIG. 4. Here is the method: In order to examine production of a natural moisturizing factor (NMF) having an important effect on skin moisturization, synthesis of filaggrin, which is a precursor of the natural moisturizing factor, was tested on human skin cells. First, skin cells were introduced into a culture flask and allowed to adhere to the bottom of the flask. Then, cells were cultured for 2 days by co-addition of 35-S-methionine upon treatment of a test material. After the cultivation was complete, the culture medium was removed and the cells were dissolved in phosphate buffered saline (PBS) containing 2% sodium dodecyl sulfate and 20 mM dithiothreitol (DTT). After the skin cells were cultured, treatment of the cells with the test material was carried out for 2 days. After the test material treatment was complete, the medium was removed, and only the cells were taken and disrupted using an ultrasonic disintegrator to thereby obtain only a protein. Using the thus-obtained protein, an amount of synthesized filaggrin was determined by Western blotting analysis. FIG. 4 is a graph showing an expression amount of filaggrin by Western blotting analysis. Clofibrate was used as a positive control, and beta-glucan was added to a concentration of 0.01% for the test.
A general note: Immunoblotting shows a protein as a band on a membrane.

Where [1] appears, read: at 48 hours after the bacterial infection.
Where [2] appears, read: one week after the bacterial infection.

Take “beta-1,6-branched-beta-1,3-glucan [beta-glucan]”: the results for the survival rate with Staphylococcus aureus (setting [1]) and with Staphylococcus aureus (setting [2]) were 40% and “all dead”, respectively. Also, in the experiment on hairless mice (0.2% beta-glucan of Example 1, 200 μl per 5 cm^2, 3 days three times a day, FIG. 5), the “recovery from skin barrier damage compared to vehicle group” value is “rapid recovery”. Moreover, in the experiment with hairless mice (after 10 hours, 0.2% beta-glucan of Example 1 topical), the “recovery of the trans-epidermal water loss” value was no less than 50%. In addition, the “synthesis of filaggrin in skin cells” value in the experiment with human skin cells is “significantly increased”.
Turning to `CC[C@H]1OC(=O)[C@H](C)[C@@H](O[C@H]2C[C@@](C)(OC)[C@@H](O)[C@H](C)O2)[C@H](C)[C@@H](O[C@@H]2O[C@H](C)C[C@H](N(C)C)[C@H]2O)[C@](C)(O)C[C@@H](C)C(=O)[C@H](C)[C@@H](O)[C@]1(C)O` [antibiotic, Erythromycin, reference compound], the figures for the survival rate result in the experiment on Staphylococcus aureus (setting [1]) and in the experiment on Staphylococcus aureus (setting [2]) were “all killed” and “all dead”, respectively.

The record behind these values is patent US20090023681A1, “METHOD OF USING BETA-GLUCAN FROM SCHIZOPHYLLUM COMMUNE” (priority 2007, published 2009).
